# From patent publication US7435850B2, “Naphthalene compounds” (Les Laboratoires Servier, priority 2006, dated 2008)
# Key:
# MT1 receptor = MT1 receptor (Homo sapiens, UniProt P48039); test: Melatonin MT1 receptor binding study
# Method: (§1) The MT1 or MT2 receptor binding experiments are carried out using 2-[^125 I]-iodomelatonin as reference radioligand. The radioactivity retained is determined using a liquid scintillation counter.
# (§2) Competitive binding experiments are then carried out in triplicate using the various test compounds. A range of different concentrations is tested for each compound. The results enable the binding affinities of the compounds tested (Ki) to be determined.
# MT2 receptor = molecular target: T1, MT2 receptor (Homo sapiens, UniProt P49286); test: Melatonin MT2 receptor binding study
# T1 sequence (P49286 1-362): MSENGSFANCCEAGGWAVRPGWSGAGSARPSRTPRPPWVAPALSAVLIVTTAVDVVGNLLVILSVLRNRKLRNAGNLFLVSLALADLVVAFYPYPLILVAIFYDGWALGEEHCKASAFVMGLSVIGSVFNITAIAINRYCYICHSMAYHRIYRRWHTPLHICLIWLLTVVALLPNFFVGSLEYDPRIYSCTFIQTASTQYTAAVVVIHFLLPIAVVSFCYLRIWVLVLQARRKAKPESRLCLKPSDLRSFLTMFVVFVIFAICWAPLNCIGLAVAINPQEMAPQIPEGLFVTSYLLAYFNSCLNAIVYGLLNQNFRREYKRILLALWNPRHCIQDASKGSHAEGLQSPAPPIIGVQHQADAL
# Method: as §1, §2
# Chain of MT1 receptor (P48039 whole entry): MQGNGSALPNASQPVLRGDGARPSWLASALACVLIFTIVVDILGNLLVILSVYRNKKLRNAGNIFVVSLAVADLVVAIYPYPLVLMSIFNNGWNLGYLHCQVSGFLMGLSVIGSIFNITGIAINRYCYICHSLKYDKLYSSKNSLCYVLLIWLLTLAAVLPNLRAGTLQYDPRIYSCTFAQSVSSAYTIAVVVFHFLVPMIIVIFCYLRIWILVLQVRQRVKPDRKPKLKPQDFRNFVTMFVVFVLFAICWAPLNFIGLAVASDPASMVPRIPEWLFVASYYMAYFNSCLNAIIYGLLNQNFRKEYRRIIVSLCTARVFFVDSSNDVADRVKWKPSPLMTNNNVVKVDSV
smiles,measurement,setting,value
"COc1ccc2cccc(C(CO)CNC(=O)CF)c2c1 (centres unmarked) [Example 1, 2-Fluoro-N-[3-hydroxy-2-(7-methoxy-1-naphthyl)propyl]acetamide]",Ki,MT1 receptor,4.7 nM
same,Ki,MT2 receptor,0.5 nM
